Measurements: the supplement of paper PMC10307832

How the values were obtained:
Assay in all cases: relative viability (nuclei count vs DMSO), 5 days (fraction); higher = more cells survive
[1] = compound: C1CC(C2=C(C1)C3=C(N2)C=CC(=C3)Cl)C(=O)N [Selisistat] + Cc1nc(Nc2ncc(C(=O)Nc3c(C)cccc3Cl)s2)cc(N2CCN(CCO)CC2)n1 [Dasatinib] (partner 0.075 µM)
Summary of the method: (§1)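 Lung cancer cell lines were pin-tool dosed in 1536-well plates on the day after seeding, with either a lone drug or a fixed anchor-drug dose plus five library-drug doses (not always all listed) in √10 steps. Nuclei were counted on 4× images after 5 days. Relative viability is the ratio of treated-well to vehicle-well nuclei counts, with each value a median of duplicate plates.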

[2] = compound: C1CC(C2=C(C1)C3=C(N2)C=CC(=C3)Cl)C(=O)N [Selisistat] + CS(=O)(=O)CCNCc1ccc(-c2ccc3ncnc(Nc4ccc(OCc5cccc(F)c5)c(Cl)c4)c3c2)o1 [Lapatinib] (partner 2 µM)
Summary of the method: as §1

[3] = compound: c1ccc2c(CCNc3ccc(Nc4ccncc4)cc3)c[nH]c2c1 [Serdemetan] + O=C(c1cc(Cc2n[nH]c(=O)c3ccccc23)ccc1F)N1CCN(C(=O)C2CC2)CC1 [Olaparib] (partner 8 µM)
Summary of the method: as §1

[4] = compound: c1ccc2c(CCNc3ccc(Nc4ccncc4)cc3)c[nH]c2c1 [Serdemetan] + C[C@@H](Oc1cc(-c2cnn(C3CCNCC3)c2)cnc1N)c1c(Cl)ccc(F)c1Cl [Crizotinib] (partner 1 µM)
Summary of the method: as §1

Cell Line	relative viability ([1]; first compound 0.4 µM)	relative viability ([1]; first compound 1.265 µM)	relative viability ([1]; first compound 4 µM)	relative viability ([1]; first compound 12.65 µM)	relative viability ([1]; first compound 40 µM)	relative viability ([2]; first compound 0.4 µM)	relative viability ([2]; first compound 1.265 µM)	relative viability ([2]; first compound 4 µM)	relative viability ([2]; first compound 12.65 µM)	relative viability ([2]; first compound 40 µM)	relative viability ([3]; first compound 0.04 µM)	relative viability ([3]; first compound 0.1265 µM)	relative viability ([3]; first compound 0.4 µM)	relative viability ([3]; first compound 1.265 µM)	relative viability ([3]; first compound 4 µM)	relative viability ([4]; first compound 0.04 µM)	relative viability ([4]; first compound 0.1265 µM)	relative viability ([4]; first compound 0.4 µM)	relative viability ([4]; first compound 1.265 µM)	relative viability ([4]; first compound 4 µM)
BEN	0.308	0.269	0.233	0.353	0.295	0.677	0.683	0.471	0.603	0.548	0.975	0.98	1.15	0.81	0.594	0.826	0.864	0.944	0.759	0.64
CAL-12T	0.451	0.478	0.316	0.281	0.372	0.628	0.704	–	0.627	0.646	0.777	0.713	0.576	0.742	0.67	0.63	0.705	0.608	–	0.74
COR-L23	0.523	0.583	0.579	0.529	0.494	0.969	1.03	0.959	0.935	0.799	0.316	0.324	0.386	0.313	0.289	0.679	0.578	0.771	0.589	0.564
COR-L 105	0.339	0.357	–	0.297	0.32	0.298	0.338	0.371	0.378	0.31	0.774	0.677	0.542	0.603	0.565	0.729	0.716	0.709	0.874	0.838
EKVX	0.575	0.509	–	0.409	0.392	0.213	0.243	0.185	0.252	0.215	0.852	0.851	–	–	0.66	0.899	0.894	0.913	0.897	0.98
EMC-BAC-2	0.355	0.367	0.378	0.317	0.315	0.869	0.875	0.848	0.894	0.848	0.447	0.446	0.473	0.338	0.403	0.727	0.778	0.694	0.5	0.39
EPLC-272H	0.352	0.33	–	0.369	0.381	0.761	0.996	–	0.955	0.915	0.837	0.883	0.714	0.676	0.641	0.939	0.692	0.868	0.612	0.837
H3255	0.385	0.369	0.309	0.331	0.428	0.225	0.263	0.123	0.245	0.271	0.559	0.529	0.527	0.508	0.566	0.723	0.836	0.811	0.746	0.853
HARA	0.25	0.299	0.202	0.166	0.264	0.726	0.691	0.71	0.778	0.904	0.875	0.892	0.674	0.476	0.362	0.856	0.971	0.966	–	0.601
HCC-15	0.716	0.625	–	0.594	0.613	0.878	0.864	–	0.867	1.01	0.673	0.667	0.57	0.38	0.386	0.795	0.852	0.743	0.584	0.58
HCC-78	0.486	0.628	0.293	0.421	0.414	0.811	0.891	0.448	0.589	0.658	0.847	0.731	0.749	0.79	0.592	0.342	0.325	0.322	0.321	0.322
HCC-366	0.591	0.606	0.297	0.599	0.588	1.09	0.977	0.899	0.971	1.07	0.22	0.0954	0.0557	0.0411	0.0631	0.528	0.412	0.117	0.0254	0.0545
HCC-827	0.393	0.38	0.306	0.421	0.301	0.192	0.189	0.203	0.182	0.186	0.631	0.594	–	0.509	0.306	0.948	0.867	–	0.791	0.615
HOP-62	0.677	0.626	0.507	0.642	0.664	0.974	1.03	0.96	0.884	1.14	0.482	0.394	0.489	–	0.263	0.719	0.995	0.684	0.857	0.494
LC-2-ad	0.611	–	0.456	0.459	0.569	1.01	0.968	0.803	0.833	1.04	0.703	0.629	0.63	0.536	0.511	0.455	0.429	0.39	0.394	0.407
LCLC-97TM1	0.8	0.887	–	0.889	0.944	0.779	1.12	0.86	0.928	1.32	0.349	0.358	0.403	0.174	0.237	0.361	0.314	0.351	0.233	0.189
LK-2	0.211	0.307	0.322	0.266	0.287	0.858	0.749	0.701	0.935	1.05	0.715	0.645	0.782	0.444	0.57	0.217	0.265	0.205	0.204	0.252
